# Read-outs that look alike come from different tables or passages of the source.
# Assays:
# [1] = Stability in buffers pH 4, 7, 9 (percentage recovered); assay type: physicochemical; conditions: for percentage recovered: 20 µg/mL
# Protocol: (§1) The HPLC system consisted of a Jasco delivery pump (Tokyo, Japan) equipped with autosampler connected to a Waters 2487 detector (Milford, MA, USA) coupled to Jasco Chromnav software (Version 2.0, Tokyo, Japan). Chromatographic separation was performed on a C8 Agilent Eclipse plus (4.6 mm i.d. × 250 mm, 5-μm particle size; Apple Valley, MN, USA). The HPLC-UV method was adapted from our previous study and revalidated for the present HPLC system. The method was employed to quantify mitragynine in partition coefficient, stability, dissolution and solubility studies.
# For solubility studies, an excess of mitragynine was added to 1.0 mL each of distilled water or buffers at pH 4, 7 and 9. The test tubes were placed in a water bath shaker at 37 degrees Celsius at 100 cycles/min for 48 h until equilibrium. The samples were centrifuged at 3000 rpm for 5 min and supernatant was taken for quantification of mitragynine by HPLC-UV. […] A 0.1 mL aliquot was collected from each buffer system at intervals of 0, 0.5, 6.0 and 24.0 h for determination of mitragynine. Mitragynine concentrations were expressed as percentage recovered. All experiments were performed in triplicates.
# [2] = pKa determination, conventional UV spectrophotometer method; assay type: physicochemical; conditions: aqueous buffer
# Source text: The instruments employed were UV spectrophotometer 8453 UV-Vis Diode Array (Agilent, Santa Clara, CA, USA), and Multiskan* GO Microplate Spectrophotometer (Thermo Scientific, Waltham, MA, USA). Data were captured using the Thermo Scientific SkanIt Software (Thermo Scientific, Version 3.2). Buffer Maker Software (version 1.0.1.55, BPP Marcin Borkowski, Marki, Poland,) was used for preparation of buffers with constant ionic strength for pKa determination. The pH-meter employed throughout the study was a PH 211 Hanna (Padova, Italy) equipped with a combined glass electrode.
# pKa determination was carried out using conventional UV and microplate spectrophotometer methods. Acetic acid, tris base and sodium carbonate were used to prepare stable buffers in the pH range of 3 to 12. The buffers were prepared to give a final buffer molarity of 0.01 M. Either NaOH or HCl were used for pH adjustment of the various buffers, whose ionic strength was kept constant at 0.02 by addition of NaCl.
# Five mL aliquots of buffer of various pH were transferred into separate tubes. To each tube, mitragynine stock solution in acetonitrile (4 mg/mL) was added to give a final drug concentration of 20 µg/mL. The percentage of organic content in final buffer preparation was kept below 1%. The prepared solutions were immediately scanned in the range of 200–400 nm.
# Stock solution of mitragynine at 0.5 mg/mL was prepared in acetonitrile. Ten microliters of the stock solution was transferred into individual test tubes and diluted with 1.0 mL buffer of various pH to give a final concentration of 5 μg/mL. For absorbance spectrum analysis, 250 μL of the various pH buffer solutions spiked with drug were placed in a 96-well quartz UV-transparent microplate and immediately scanned in the range of 200–400 nm at a scanning rate of 200 nm/s in triplicates. The pKa was calculated with equation pKa = pH + log (d − dm/di − d), for basic compound, where di is the absorbance of the ionised species, d is the absorbance of the solution tested and dm is the absorbance of the neutral species.
# [3] = parameters: method as in PMID 24841968; conditions: cited from earlier work
# mice = system: mice; parameters: method as in Macko et al, 15; conditions: mitragynine salt solution, ref Macko et al, 15; cited from earlier work
# [4] = Equilibrium solubility in water and buffers (HPLC-UV); assay type: physicochemical
# Protocol: as §1
# For solubility studies, an excess of mitragynine was added to 1.0 mL each of distilled water or buffers at pH 4, 7 and 9. The test tubes were placed in a water bath shaker at 37 degrees Celsius at 100 cycles/min for 48 h until equilibrium. The samples were centrifuged at 3000 rpm for 5 min and supernatant was taken for quantification of mitragynine by HPLC-UV. For stability studies, analogous buffers were used, but they were spiked with mitragynine in acetonitrile to give a concentration of 20 µg/mL (organic content was kept below 1%). A 0.1 mL aliquot was collected from each buffer system at intervals of 0, 0.5, 6.0 and 24.0 h for determination of mitragynine. Mitragynine concentrations were expressed as percentage recovered. All experiments were performed in triplicates.
# opiate receptor = system: opiate receptor; parameters: method as in ref 29 = [29]; 29. Watanabe K. Yano S. Horie S. Yamamoto L.T. Takayama H. Aimi N. Sakai S. Ponglux D. Tongroach P. Shan J. Pharmacological properties of some structurally related indole alkaloids contained in the As; conditions: cited from earlier work
# [5] = Stability in simulated intestinal fluid (SIF, with enzymes); conditions: for Concentration Found in SIF: SIF pH 6.8 with pancreatin
smiles,measurement,setting,value
CC[C@@H]1CN2CCc3c([nH]c4cccc(OC)c34)[C@@H]2C[C@@H]1/C(=C\OC)C(=O)OC [mitragynine],stability in buffer (in words),[1]; pH 4,appears to degrade over time
same,percentage recovered,"[1]; pH 4 buffer, 0.5 h",100.6 ± 0.3%
same,percentage recovered,"[1]; pH 4 buffer, 6 h",91.8 ± 1.0%
same,percentage recovered,"[1]; pH 4 buffer, 24 h",88.8 ± 1.4%
same,stability in buffer (in words),"[1]; pH 7 and 9, 24 h",stable
same,percentage recovered,"[1]; pH 7 buffer, 0.5 h",99.2 ± 0.4%
same,percentage recovered,"[1]; pH 7 buffer, 6 h",96.1 ± 1.9%
same,percentage recovered,"[1]; pH 7 buffer, 24 h",101.9 ± 0.9%
same,percentage recovered,"[1]; pH 9 buffer, 0.5 h",101.3 ± 2.6%
same,percentage recovered,"[1]; pH 9 buffer, 6 h",97.8 ± 0.3%
same,percentage recovered,"[1]; pH 9 buffer, 24 h",95.5 ± 2.5%
same,pKa,"[2]; UV Spectrophotometer, Day 1, read-out: pKa, interday repeatability",8.18
same,pKa,"[2]; UV Spectrophotometer, Day 2, read-out: pKa, interday repeatability",8.11
same,pKa,"[2]; UV Spectrophotometer, Day 3, read-out: pKa, interday repeatability",8.15
same,pKa,"[2]; pH 7.52, target pH 7.6, actual pH 7.52, 20 µg/mL, 248 nm, read-out: pKa",8.02
same,pKa,"[2]; pH 7.6, conventional UV method, mean over pH 7.6-9.0, read-out: pKa (Mean ± SD)",8.11 ± 0.11
same,pKa,"[2]; pH 7.78, target pH 7.8, actual pH 7.78, 20 µg/mL, 248 nm, read-out: pKa",8.16
same,pKa,"[2]; pH 7.96, target pH 8.0, actual pH 7.96, 20 µg/mL, 248 nm, read-out: pKa",8.17
same,pKa,"[2]; pH 8.13, target pH 8.2, actual pH 8.13, 20 µg/mL, 248 nm, read-out: pKa",8.18
same,pKa,"[2]; pH 8.34, target pH 8.4, actual pH 8.34, 20 µg/mL, 248 nm, read-out: pKa",8.13
same,pKa,"[2]; pH 8.45, target pH 8.6, actual pH 8.45, 20 µg/mL, 248 nm, read-out: pKa",8.05
same,pKa,"[2]; pH 8.71, target pH 8.8, actual pH 8.71, 20 µg/mL, 248 nm, read-out: pKa",8.27
same,pKa,"[2]; pH 8.92, target pH 9.0, actual pH 8.92, 20 µg/mL, 248 nm, read-out: pKa",7.93
same,drug loss in SGF,[3],26%
same,dose up to which no adverse reactions were reported,mice,920 mg/kg
same,solubility at 48 h,"[4]; aqueous buffer, thermodynamic from solid, buffer pH 4, 37 °C",3500 ± 10 µg/mL
same,solubility at 48 h,"[4]; aqueous buffer, thermodynamic from solid, buffer pH 7, 37 °C",88.9 ± 1.6 µg/mL
same,solubility at 48 h,"[4]; aqueous buffer, thermodynamic from solid, buffer pH 9, 37 °C",18.7 ± 0.4 µg/mL
same,solubility at 48 h,"[4]; distilled water, thermodynamic from solid, water, 37 °C",64.6 ± 1.2 µg/mL
same,solubility at 48 h,"[4]; distilled water, water, 37 °C",< 100 µg/mL
same,"antinociceptive effect, potency compared with M. speciosa crude extract",opiate receptor,less potent than the M. speciosa crude extract
same,Concentration Found in SIF,"[5]; 0 min, 37 °C",6700 ± 600 ng/mL
same,RD (relative difference vs time 0) in SIF,[5]; 10 min,−0.07%
same,Concentration Found in SIF,"[5]; 10 min, 37 °C",6690 ± 630 ng/mL
same,Concentration Found in SIF,"[5]; 20 min, 37 °C",6560 ± 670 ng/mL
same,RD (relative difference vs time 0) in SIF,[5]; 30 min,4.43%
same,Concentration Found in SIF,"[5]; 30 min, 37 °C",6990 ± 210 ng/mL
same,RD (relative difference vs time 0) in SIF,[5]; 40 min,4.94%
same,Concentration Found in SIF,"[5]; 40 min, 37 °C",7030 ± 130 ng/mL
same,RD (relative difference vs time 0) in SIF,[5]; 50 min,3.49%
same,Concentration Found in SIF,"[5]; 50 min, 37 °C",6930 ± 130 ng/mL
same,RD (relative difference vs time 0) in SIF,[5]; 60 min,2.49%
same,Concentration Found in SIF,"[5]; 60 min, 37 °C",6860 ± 10 ng/mL
same,RD (relative difference vs time 0) in SIF,[5]; 120 min,1.31%
same,Concentration Found in SIF,"[5]; 120 min, 37 °C",6780 ± 790 ng/mL
same,RD (relative difference vs time 0) in SIF,[5]; 180 min,3.46%
same,Concentration Found in SIF,"[5]; 180 min, 37 °C",6930 ± 770 ng/mL
same,stability in SIF (in words),"[5]; SIF pH 6.8, 3 h, 37 °C",considered stable
